assay: Inhibition of Src-mediated dentine resorption in rabbit-osteoclast assay

SMILES	IC50 [µM]
CN(C)CCNc1nc(Nc2ccccc2)c2ncn(C3CCCC3)c2n1	9.81
N[C@H]1CC[C@H](Nc2nc(Nc3ccccc3)c3ncn(C4CCCC4)c3n2)CC1	0.141
N[C@H]1CC[C@H](Nc2nc(Nc3ccc(P(=O)(O)O)c(P(=O)(O)O)c3)c3ncn(C4CCCC4)c3n2)CC1	15.7
O=P(O)(O)C(O)(CCCNc1nc(Nc2ccccc2)c2ncn(C3CCCC3)c2n1)P(=O)(O)O	48.2
O=P(O)(O)CP(=O)(O)CCCNc1nc(Nc2ccccc2)c2ncn(C3CCCC3)c2n1	5.23
N[C@H]1CC[C@H](Nc2nc(Nc3ccc(P(=O)(O)CP(=O)(O)O)cc3)c3ncn(C4CCCC4)c3n2)CC1	0.041
N[C@H]1CC[C@H](Nc2nc(Nc3ccc(C(P(=O)(O)O)P(=O)(O)O)cc3)c3ncn(C4CCCC4)c3n2)CC1	22

Source: BindingDB's records for doi:10.1016/s0960-894x(03)00648-6 (Ariad Pharmaceuticals, 2003)
